Series [1] is described as follows: refractive index (Na D-line) (dimensionless). To be noted: 298.2 K; 101.33 kPa; Liquid; Standard Abbe refractometry.
The conditions of series [2]: 298.2 K; 101.33 kPa; Liquid; Vibrating tube method.

± gives the expanded uncertainty stated by the source.

`O` [water]: the refractive index in series [1] amounted to 1.3325 ± 0.0004.
As to `CCCCO` [butan-1-ol], the refractive index in series [1] was found to be 1.3972 ± 0.0004. The mass density in series [2] was 805.877 ± 0.63 kg/m3.
Regarding `CCCCCO` [pentan-1-ol], the refractive index in series [1] was 1.4078 ± 0.0004. The mass density in series [2] is 811.288 ± 0.63 kg/m3.
With `CC(O)C(=O)O` (stereo not drawn) [2-hydroxypropanoic acid], the refractive index in series [1] is 1.4243 ± 0.003. Also, in series [2], the mass density amounted to 1199.91 ± 87 kg/m3.
Take `CCCCCCCO` [heptan-1-ol]: the refractive index in series [1] is 1.4224 ± 0.0004. For the same compound, the mass density in series [2] stood at 818.915 ± 0.63 kg/m3.
On the same counts, the results for `CCCCCCO` [hexan-1-ol] are 1.416 ± 0.0005 and 815.167 ± 0.83 kg/m3.
On to `CCC(C)O` (stereo not drawn) [butan-2-ol], for which the refractive index in series [1] is recorded as 1.394 ± 0.0004. Besides, the mass density in series [2] is recorded as 802.362 ± 0.63 kg/m3.

By refractive index is commonly meant the speed of light in vacuum divided by its phase velocity in the sample. Broadly, the mass density is the mass of a sample divided by its volume.

The values above are taken from the NIST ThermoML archive (doi:10.1016/j.fluid.2013.06.007).
